Test results from paper PMC5805526, “ZB716, a steroidal selective estrogen receptor degrader (SERD), is orally efficacious in blocking tumor growth in mouse xenograft models” (Oncotarget, 2018).
Like-named read-outs stand apart in the source and are kept apart here.

Experiments:
[1] = tested on: T47D/Y537S breast cancer cells; assay: T47D/Y537S ESR1 mutant cell growth inhibition; format: cell-based; details: Homo sapiens, 120 h, 5 days treatment
Source text: Wild-type ESR1, the Y537S ESR1 mutant were fused to a FLAG tag at their C-termini and cloned into the lentiviral vector pFLRu-FH [30]. Y537S mutation was first introduced into ESR1 using the QuikChange II XL Site-Directed Mutagenesis Kit (Agilent) with an ESR1-encoding plasmid (Accession number NM_000125.1, GeneCopoeia Inc.) as the template. […] To make lentiviral particles, pFLRu-FH vector DNAs (encoding ESR1(wt) and ESR1(Y537S)) were cotransfected with the packaging plasmids into HEK293T cells using Fugene 6 (Roche). At 48 hours post transfection, culture media containing different viruses were added to T47D cells in the presence of polybrene followed by 3-day puromycin selection for stable expression.
Viable cell numbers were counted with a Z Series Coulter Counter instrument (Beckman-Coulter) following manufacturer's instructions. […] IC50 values were obtained from dose-response curves for all treatments.

[2] = Drug concentrations in final plasma and tumor tissue of MCF-7 xenograft mice; format: in vivo; details: female, Nu/Nu, mouse
Protocol: The plasma samples of 100 μL each were processed for analysis by a TSQ UPLC-MS/MS system. Aliquots of 10 μL of 0.5 ng/μl E-Tamoxifen-2C^13, N^15, 200 μL methanol, and 400 μl chloroform were added to the plasma in a 1.5 mL centrifuge tube in sequence. The sample was vortexed and stored at −20°C for 4 hours, followed by sonication in a Branson B3510MT Ultrasonic Cleaners for 30 min and centrifuged at 12000 RPM on a Heraeus Fresco 21 Refrigerated Micro Centrifuge from Thermo Fisher Scientific for 10 min. The supernatant was dried with a nitrogen gas flow and suspended in 100 μL methanol. Aliquots of 10 μL of the above processed samples were injected into a TSQ Vantage mass spectrometer connected with a heated electrospray ionization probe and a Dionex Ultimat 3000 UHPLC with a Hypersil gold column (50×2.1 mm). The probe setting and front mass spectrometer setting were controlled as follows: spray voltage 3200 voltage, auxiliary gas 10psi, vaporizer temperature 365°C, capillary temperature 300°C, sheath gas 30psi, S-lens RF amplitude 51 voltage. The flow gradient was started with initial 30% mobile phase A of water with 0.05% formic acid to 1 min, to 100% mobile phase B of acetonitrile with 0.05% formic acid at 8 min, and return to 30% mobile phase A at 13 min.

[3] = tested on: MCF-7 breast cancer cells; assay: MCF-7 cell growth inhibition; format: cell-based; details: Homo sapiens, MCF7, 120 h; 5 days treatment, cell count vs DMSO
Protocol: At the end of treatment, surviving cells were counted and normalized to control cells that were treated with vehicle (DMSO) only. (B) IC50 values were obtained by deriving logarithmic curves from the %cell survival vs. treatment dose plot.

ERα LBD = molecular target: T1, ERα LBD (Homo sapiens, UniProt P03372); assay: MARCoNI ERα-coregulator interaction peptide microarray; format: biochemical; details: 10 μM compound, 7 nM GST-tagged ERα LBD, vs apo
T1 construct: using 7 nM GST-tagged ERα LBD (Invitrogen); purchased Invitrogen
T1 sequence (P03372 311-547 limits assumed): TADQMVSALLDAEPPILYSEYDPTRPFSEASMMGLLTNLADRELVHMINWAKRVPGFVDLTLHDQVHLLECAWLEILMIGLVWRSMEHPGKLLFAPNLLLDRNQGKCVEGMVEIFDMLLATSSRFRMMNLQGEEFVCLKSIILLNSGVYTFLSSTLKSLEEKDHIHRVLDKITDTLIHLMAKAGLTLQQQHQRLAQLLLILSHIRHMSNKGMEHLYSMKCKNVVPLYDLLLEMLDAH
Protocol: The modulation of ERα-coregulator interaction by compound was analyzed using MARCoNI (Micro Array Assay for Real-time Coregulator Nuclear receptor Interaction) as described previously using 7 nM GST-tagged ERα LBD (Invitrogen).
Each condition is measured using 3 technical replicates (arrays). After incubation, unbound receptor is removed by washing, and a tiff image of each array is acquired using a CCD camera and receptor binding to each peptide on the array is quantified using dedicated software. For each condition, the three technical replicates are used to calculate mean and S.E.M. ERα binding as well as compound-induced log-fold modulation vs. control for each individual motif. Significance of the modulation is assessed using Student's t-Test.

[4] = design: method as in PMID 27529700; details: after ZB716 dosing; cited from earlier work
ERα = tested on: ERα; design: method as in PMID 27529700; details: read-out: binding affinity to ERα, EC50; cited from earlier work

IC50 [1]: 32 nM | concentration at 3 weeks ([2]; plasma, subcutaneous, 200 mg/kg/wk, read-out: Average concentration in final plasma): 27.9 ng/mL | concentration at 3 weeks ([2]; plasma, treatment ZB716 10 mg/kg daily PO, end of study, read-out: Average concentration in final plasma): 18.4 ng/mL | concentration at 3 weeks ([2]; plasma, treatment ZB716 30 mg/kg daily PO, end of study, read-out: Average concentration in final plasma): 145 ng/mL | concentration at 3 weeks ([2]; tumor tissue, subcutaneous, 200 mg/kg/wk, read-out: Average concentration in tumor tissue): 160 ng/mL | concentration at 3 weeks ([2]; tumor tissue, treatment ZB716 10 mg/kg daily PO, end of study, read-out: Average concentration in tumor tissue): 67.9 ng/mL | concentration at 3 weeks ([2]; tumor tissue, treatment ZB716 30 mg/kg daily PO, end of study, read-out: Average concentration in tumor tissue): 118 ng/mL | IC50 [3]: 1.5 nM | modulation of ERα interaction with coactivator motifs (NCOA family) (ERα LBD): strongly reduced
SMILES: C[C@]12CC[C@@H]3c4ccc(O)cc4C[C@@H](CCCCCCCCC[S+]([O-])CCCC(F)(F)C(F)(F)F)[C@H]3[C@@H]1CC[C@@H]2O (some centres unmarked) [fulvestrant, reference compound]
share of total active ingredients in mice plasma (active metabolite of ZB716) [4]: 10-20% | EC50 (ERα): […]
